Experimental data as given in US20090306126A1, “Indole Derivatives” (ASTRAZENECA AB, priority 2006, published 2009).

What was measured:
[1] = system: phosphorylation of Serine 473 in Akt; assay: In vitro phospho-Ser473 Akt assay in MDA-MB-468 cells, Test (c); format: cell-based; conditions: Homo sapiens, 2 hours, read-out: IC50, inhibition of phosphorylation of Serine 473 in Akt
Experimental: (c) In Vitro Phospho-Ser473 Akt Assay
This assay determines the ability of test compounds to inhibit phosphorylation of Serine 473 in Akt as assessed using Acumen Explorer technology (TTP LabTech Limited, Royston, Herts, SG8 6EE, UK), a plate reader that can be used to rapidly quantitate features of images generated by laser-scanning.
A MDA-MB-468 human breast adenocarcinoma cell line (LGC Promochem, Teddington, Middlesex, UK, Catalogue No. HTB-132) was routinely maintained at 37° C. with 5% CO2 up to a confluency of 70-90% in DMEM containing 10% FCS and 1% L-glutamine.
For the assay, the cells were detached from the culture flask using ‘Accutase’ (Innovative Cell Technologies Inc., San Diego, Calif., USA; Catalogue No. AT104) using standard tissue culture methods and resuspended in media to give 5.5×10^4 cells per ml. Aliquots (90 μl) were seeded into each of the inner 60 wells of a black ‘Costar’ 96-well plate (Corning Inc., NY, USA; Catalogue No. 3904) to give a density of ˜5000 cells per well. Aliquots (90 μl) of culture media were placed in the outer wells to prevent edge effects. [An alternative cell handling procedure involved the maintenance of the cells in a ‘SelecT’ robotic device (The Automation Partnership, Royston, Herts SG8 5WY, UK). Cells were resuspended in media to give 5×10^4 cells per ml. Aliquots (100 μl) were seeded into the wells of a black ‘Costar’ 96-well plate.] The cells were incubated overnight at 37° C. with 5% CO2 to allow them to adhere.
On day 2, the cells were treated with test compounds. Test compounds were prepared as 10 mM stock solutions in DMSO and serially diluted as required with DMSO and with growth media to give a range of concentrations that were 10-fold the required final test concentrations. Aliquots (10 μl) of each compound dilution were placed in duplicate wells to give the final required concentrations. As a minimum response control, each plate contained wells having a final concentration of 30 μM LY294002 (Calbiochem, Beeston, UK, Catalogue No. 440202). As a maximum response control, wells contained 0.5% DMSO instead of test compound. [An alternative cell treatment procedure involved the transfer of test compounds to the wells using an ‘Echo 550’ liquid dispenser (Labcyte Inc., Sunnyvale, Calif. 94089, USA). Test compounds were prepared as 10 mM stock solutions in DMSO and aliquots (40 μl) of each compound were dispensed into one well of a quadrant of wells within a 384-well plate (Labcyte Inc., Catalogue No. P-05525-CV1). Four concentrations of each compound were prepared in each quadrant of wells in the 384-well plate using a ‘Hydra II’ pipettor (Matrix Technologies Corporation, Handforth SK9 3LP, UK). […]

p110α Type Ia human PI3K = biological target: T1, p110α Type Ia human PI3K (Homo sapiens, UniProt P42336); assay: In vitro PI3K enzyme assay (AlphaScreen), Test (a); format: biochemical; conditions: recombinant enzyme, ATP 4 μM, read-out: IC50 versus p110α Type Ia human PI3K
T1 construct: full length DNA of each of the p110α, p110β and p110δ Type Ia human PI3K p110 isoforms; 6-His; made in house
T1 sequence (P42336 whole entry, canonical isoform): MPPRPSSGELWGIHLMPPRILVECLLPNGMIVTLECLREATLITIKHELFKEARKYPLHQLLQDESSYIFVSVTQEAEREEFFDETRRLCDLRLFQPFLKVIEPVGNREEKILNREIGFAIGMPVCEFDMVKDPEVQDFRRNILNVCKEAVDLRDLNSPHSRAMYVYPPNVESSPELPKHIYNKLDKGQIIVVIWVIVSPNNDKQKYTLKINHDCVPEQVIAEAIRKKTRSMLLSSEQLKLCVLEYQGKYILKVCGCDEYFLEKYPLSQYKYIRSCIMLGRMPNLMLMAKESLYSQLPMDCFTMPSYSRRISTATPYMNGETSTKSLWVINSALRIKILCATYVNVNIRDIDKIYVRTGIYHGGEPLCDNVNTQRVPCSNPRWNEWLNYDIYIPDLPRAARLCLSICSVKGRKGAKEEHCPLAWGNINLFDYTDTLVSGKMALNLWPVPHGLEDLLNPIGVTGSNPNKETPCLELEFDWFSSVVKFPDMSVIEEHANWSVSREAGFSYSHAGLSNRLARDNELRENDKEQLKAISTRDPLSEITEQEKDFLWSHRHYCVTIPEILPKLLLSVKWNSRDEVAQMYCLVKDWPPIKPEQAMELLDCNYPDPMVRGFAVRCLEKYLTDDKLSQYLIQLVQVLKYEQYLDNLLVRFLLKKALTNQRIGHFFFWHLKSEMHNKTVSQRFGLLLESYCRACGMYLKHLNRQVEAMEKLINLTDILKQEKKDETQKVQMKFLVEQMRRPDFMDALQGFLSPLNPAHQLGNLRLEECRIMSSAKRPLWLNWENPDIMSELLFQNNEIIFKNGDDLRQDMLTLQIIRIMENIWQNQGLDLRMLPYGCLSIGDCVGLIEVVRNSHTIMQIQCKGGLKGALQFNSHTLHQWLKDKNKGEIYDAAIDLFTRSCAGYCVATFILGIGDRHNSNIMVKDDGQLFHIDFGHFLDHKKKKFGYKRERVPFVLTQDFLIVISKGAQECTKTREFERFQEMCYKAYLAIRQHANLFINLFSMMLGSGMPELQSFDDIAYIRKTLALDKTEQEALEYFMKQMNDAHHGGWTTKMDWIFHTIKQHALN
T1 sequence (P27986 whole entry partner, canonical isoform): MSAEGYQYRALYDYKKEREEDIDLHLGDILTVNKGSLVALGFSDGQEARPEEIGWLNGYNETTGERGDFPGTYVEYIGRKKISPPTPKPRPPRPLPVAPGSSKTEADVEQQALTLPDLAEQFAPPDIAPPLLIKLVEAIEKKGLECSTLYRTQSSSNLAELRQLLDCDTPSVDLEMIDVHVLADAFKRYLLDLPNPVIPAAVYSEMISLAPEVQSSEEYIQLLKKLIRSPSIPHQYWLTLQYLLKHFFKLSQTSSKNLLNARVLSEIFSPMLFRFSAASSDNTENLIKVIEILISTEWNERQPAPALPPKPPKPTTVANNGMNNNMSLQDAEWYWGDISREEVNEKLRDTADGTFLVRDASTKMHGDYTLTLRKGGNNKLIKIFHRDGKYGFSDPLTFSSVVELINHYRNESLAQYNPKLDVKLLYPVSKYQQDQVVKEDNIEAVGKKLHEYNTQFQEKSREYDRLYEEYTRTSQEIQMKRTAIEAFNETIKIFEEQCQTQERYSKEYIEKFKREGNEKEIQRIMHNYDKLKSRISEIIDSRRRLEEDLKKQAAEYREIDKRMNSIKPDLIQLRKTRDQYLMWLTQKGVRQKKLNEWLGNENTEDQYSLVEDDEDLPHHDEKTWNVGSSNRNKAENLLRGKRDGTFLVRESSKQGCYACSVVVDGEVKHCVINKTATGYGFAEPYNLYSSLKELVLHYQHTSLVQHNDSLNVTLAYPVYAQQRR
Source text: (a) In Vitro PI3K Enzyme Assay
The assay used AlphaScreen technology (Gray et al., Analytical Biochemistry, 2003, 313: 234-245) to determine the ability of test compounds to inhibit phosphorylation by recombinant Type I PI3K enzymes of the lipid PI(4,5)P2.
DNA fragments encoding human PI3K catalytic and regulatory subunits were isolated from cDNA libraries using standard molecular biology and PCR cloning techniques. The selected DNA fragments were used to generate baculovirus expression vectors. In particular, full length DNA of each of the p110α, p110β and p110δ Type Ia human PI3K p110 isoforms (EMBL Accession Nos. HSU79143, S67334, Y10055 for p110α, p110β and p110δ respectively) were sub-cloned into a pDEST10 vector (Invitrogen Limited, Fountain Drive, Paisley, UK). The vector is a Gateway-adapted version of Fastbac1 containing a 6-His epitope tag. A truncated form of Type Ib human PI3K p110γ isoform corresponding to amino acid residues 144-1102 (EMBL Accession No. X8336A) and the full length human p85α regulatory subunit (EMBL Accession No. HSP13KIN) were also sub-cloned into pFastBac1 vector containing a 6-His epitope tag. The Type Ia p110 constructs were co-expressed with the p85α regulatory subunit. Following expression in the baculovirus system using standard baculovirus expression techniques, expressed proteins were purified using the His epitope tag using standard purification techniques.
DNA corresponding to amino acids 263 to 380 of human general receptor for phosphoinositides (Grp1) PH domain was isolated from a cDNA library using standard molecular biology and PCR cloning techniques. The resultant DNA fragment was sub-cloned into a pGEX 4T1 E. coli expression vector containing a GST epitope tag (Amersham Pharmacia Biotech, Rainham, Essex, UK) as described by Gray et al., Analytical Biochemistry, 2003, 313: 234-245). The GST-tagged Grp1 PH domain was expressed and purified using standard techniques.
Test compounds were prepared as 10 mM stock solutions in DMSO and diluted into water as required to give a range of final assay concentrations. Aliquots (2 μl) of each compound dilution were placed into a well of a Greiner 384-well low volume (LV) white polystyrene plate (Greiner Bio-one, Brunel Way, Stonehouse, Gloucestershire, UK Catalogue No. 784075). […]
Biotinylated-DiC8-PI(3,4,5)P3 (50 nM; Cell Signals Inc., Catalogue No. 107), recombinant purified GST-Grp1 PH protein (2.5 nM) and AlphaScreen Anti-GST donor and acceptor beads (100 ng; Packard Bioscience Limited, Station Road, Pangbourne, Berkshire, UK, Catalogue No. 6760603M) were added and the assay plates were left for about 5 to 20 hours at room temperature in the dark. The resultant signals arising from laser light excitation at 680 nm were read using a Packard AlphaQuest instrument. […]

[2] = biological target: mTOR PI kinase-related kinase (Homo sapiens, UniProt P42345); assay: In vitro mTOR PI kinase-related kinase assay (AlphaScreen), Test (b); format: biochemical; conditions: recombinant mTOR (1362-2549), ATP 20 μM, read-out: IC50 versus mTOR PI kinase-related kinase
Sequence of mTOR PI kinase-related kinase (P42345 1362-2549): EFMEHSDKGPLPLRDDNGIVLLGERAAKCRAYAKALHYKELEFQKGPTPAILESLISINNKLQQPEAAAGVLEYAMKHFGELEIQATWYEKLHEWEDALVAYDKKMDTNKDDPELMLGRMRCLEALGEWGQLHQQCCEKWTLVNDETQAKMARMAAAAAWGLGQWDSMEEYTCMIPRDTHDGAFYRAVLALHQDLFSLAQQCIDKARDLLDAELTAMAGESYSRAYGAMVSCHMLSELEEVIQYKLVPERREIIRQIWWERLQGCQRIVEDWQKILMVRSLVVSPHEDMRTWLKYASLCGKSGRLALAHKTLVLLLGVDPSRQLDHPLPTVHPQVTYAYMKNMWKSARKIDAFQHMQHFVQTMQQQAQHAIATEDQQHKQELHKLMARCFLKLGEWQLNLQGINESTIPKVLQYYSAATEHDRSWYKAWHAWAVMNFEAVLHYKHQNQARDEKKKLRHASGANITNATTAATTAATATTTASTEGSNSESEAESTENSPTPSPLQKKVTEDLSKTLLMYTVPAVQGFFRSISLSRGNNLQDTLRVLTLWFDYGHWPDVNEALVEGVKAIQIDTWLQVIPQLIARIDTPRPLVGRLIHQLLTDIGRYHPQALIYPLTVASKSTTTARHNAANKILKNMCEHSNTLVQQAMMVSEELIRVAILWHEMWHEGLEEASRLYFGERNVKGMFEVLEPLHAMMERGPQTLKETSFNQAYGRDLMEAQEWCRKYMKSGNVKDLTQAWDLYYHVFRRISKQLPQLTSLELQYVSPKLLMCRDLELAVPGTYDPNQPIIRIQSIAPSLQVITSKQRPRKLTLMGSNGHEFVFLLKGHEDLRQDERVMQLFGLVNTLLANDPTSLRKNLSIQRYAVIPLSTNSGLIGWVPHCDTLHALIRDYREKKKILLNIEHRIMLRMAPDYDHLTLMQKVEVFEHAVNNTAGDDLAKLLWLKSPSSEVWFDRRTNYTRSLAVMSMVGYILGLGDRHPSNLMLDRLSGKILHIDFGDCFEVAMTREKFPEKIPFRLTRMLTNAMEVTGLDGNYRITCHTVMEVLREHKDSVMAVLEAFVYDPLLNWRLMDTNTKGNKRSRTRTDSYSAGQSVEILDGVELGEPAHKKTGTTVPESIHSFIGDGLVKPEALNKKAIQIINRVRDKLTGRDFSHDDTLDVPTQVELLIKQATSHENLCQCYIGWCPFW
Experimental: (b) In Vitro mTOR PI Kinase-Related Kinase Assay
The assay used AlphaScreen technology (Gray et al, Analytical Biochemistry, 2003, 313: 234-245) to determine the ability of test compounds to inhibit phosphorylation by recombinant mTOR. […]
Each reaction was stopped by the addition of 10 μl of a mixture of EDTA (50 mM), bovine serum albumin (BSA; 0.5 mg/ml) and Tris-HCl pH7.4 buffer (50 mM) containing p70 S6 Kinase (T389) 1A5 Monoclonal Antibody (Cell Signalling Technology, Catalogue No. 9206B) and AlphaScreen Streptavidin donor and Protein A acceptor beads (200 ng; Perkin Elmer, Catalogue No. 6760002B and 6760137R respectively) were added and the assay plates were left for about 20 hours at room temperature in the dark. The resultant signals arising from laser light excitation at 680 nm were read using a Packard Envision instrument.
Phosphorylated biotinylated peptide is formed in situ as a result of mTOR mediated phosphorylation. […] Upon laser light excitation at 680 nm, the donor bead:acceptor bead complex produces a signal that can be measured. […]
mTOR enzyme inhibition for a given test compound was expressed as an IC50 value.

IC50 [1] [µM] | IC50 (p110α Type Ia human PI3K) [µM] | IC50 [2] [µM] | Compound
~5 | ~0.2 |  | O=S(=O)(Nc1cc(-c2cnc3[nH]ccc3c2)cnc1Cl)c1ccccc1 [Example 3, N-[2-chloro-5-(1H-pyrrolo[2,3-b]pyridin-5-yl)pyridin-3-yl]benzenesulphonamide]
~2 | ~0.5 |  | Cc1nc2[nH]cnc2cc1-c1cnc(Cl)c(NS(=O)(=O)c2ccccc2)c1 [Example 7, N-[2-chloro-5-(5-methyl-3H-imidazo[4,5-b]pyridin-6-yl)pyridin-3-yl]benzenesulphonamide]
~13 | ~0.5 | ~1 | CS(=O)(=O)Nc1cc(-c2cnc3[nH]ccc3c2)cnc1Cl [Example 1, N-[2-chloro-5-(1H-pyrrolo[2,3-b]pyridin-5-yl)pyridin-3-yl]methanesulphonamide]
~3 | ~0.1 |  | Cc1nc2[nH]ccc2cc1-c1cnc(Cl)c(NS(=O)(=O)c2ccccc2)c1 [Example 8, N-[2-chloro-5-(6-methyl-1H-pyrrolo[2,3-b]pyridin-5-yl)pyridin-3-yl]benzenesulphonamide]
